Measurements from article PMC6905855, “Agonist-specific voltage-dependent gating of lysosomal two-pore Na^+ channels” (eLife, 2019).
“And” between values parts separate entries of the source, which are not always exact repeats. Equal values may be shown once. Where a name gives a salt, the structure may show the parent alone. Read-outs that look alike come from different tables or passages of the source. Values belong to the molecule of their own block, whether it stands above or below them.

Tests used:
[1] = target: T1, surface-expressing mutant TPC2 channel (TPC2^LL/AA) in HEK293 cells (Homo sapiens, UniProt Q8NHX9, L11A/L12A); assay: Whole-cell recordings of ITPC2-LL/AA; format: cell-based; details: for I-TPC2: preliminary whole-cell test of positive LOPAC hits, HEK293 cells overexpressing TPC2 LL/AA, voltage ramp -140 to +100 mV (200 ms), measured at -140 mV; for activation of whole-cell ITPC2-LL/AA (in words): bath application, symmetric Na^+, 100 µM where stated; for current density: whole cell recordings, individual recordings; for EC50: whole-cell recordings at −140 mV, TPC2^LL/AA-transfected HEK293 cells
T1 construct: expressed in transfected cells; host or cells: HEK293
Description: We therefore characterized the responses of TPC2 channels to TCAs in detail using electrophysiological methods. We first performed whole-cell recordings in HEK293 cells that were transfected with surface-expressed TPC2 mutant channels (TPC2-L^11L^12-AA; abbreviated as TPC2^LL/AA hereafter).
All TPC1 and TPC2 mutants were generated with a site-directed mutagenesis kit (Qiagen) using EGFP- human TPC1 and TPC2 as the templates. All constructs were confirmed by DNA sequencing.
Cells were transfected with Lipofectamine 2000 (Invitrogen). After culture media were refreshed 18–24 hr post-transfection, cells were used for the electrophysiological assays 24–36 hr post-transfection.
All bath solutions were applied via a perfusion system that allowed complete solution exchange within a few seconds. […] Whole-cell currents were digitized at 10 kHz and filtered at 2 kHz.

[2] = target: T2, hTPC2 (Homo sapiens, UniProt Q8NHX9); assay: Whole-endolysosome recordings of ITPC2; format: biochemical; design: Whole endo-lysosomal TPC2 current activated by LyNa-VAs, Test 3 / Whole endo-lysosomal TPC2 current activated by LyNa-VAs, mean: unit not given here; details: for Whole endo-lysosomal TPC2 current activated by LyNa-VAs, mean: mean of n tests; for ITPC2: whole endolysosome recordings with 100 µM of LyNa-VAs at −120 mV
T2 construct: expressed in transfected cells; host or cells: Cos1 and HEK293
T2 sequence (Q8NHX9 whole entry): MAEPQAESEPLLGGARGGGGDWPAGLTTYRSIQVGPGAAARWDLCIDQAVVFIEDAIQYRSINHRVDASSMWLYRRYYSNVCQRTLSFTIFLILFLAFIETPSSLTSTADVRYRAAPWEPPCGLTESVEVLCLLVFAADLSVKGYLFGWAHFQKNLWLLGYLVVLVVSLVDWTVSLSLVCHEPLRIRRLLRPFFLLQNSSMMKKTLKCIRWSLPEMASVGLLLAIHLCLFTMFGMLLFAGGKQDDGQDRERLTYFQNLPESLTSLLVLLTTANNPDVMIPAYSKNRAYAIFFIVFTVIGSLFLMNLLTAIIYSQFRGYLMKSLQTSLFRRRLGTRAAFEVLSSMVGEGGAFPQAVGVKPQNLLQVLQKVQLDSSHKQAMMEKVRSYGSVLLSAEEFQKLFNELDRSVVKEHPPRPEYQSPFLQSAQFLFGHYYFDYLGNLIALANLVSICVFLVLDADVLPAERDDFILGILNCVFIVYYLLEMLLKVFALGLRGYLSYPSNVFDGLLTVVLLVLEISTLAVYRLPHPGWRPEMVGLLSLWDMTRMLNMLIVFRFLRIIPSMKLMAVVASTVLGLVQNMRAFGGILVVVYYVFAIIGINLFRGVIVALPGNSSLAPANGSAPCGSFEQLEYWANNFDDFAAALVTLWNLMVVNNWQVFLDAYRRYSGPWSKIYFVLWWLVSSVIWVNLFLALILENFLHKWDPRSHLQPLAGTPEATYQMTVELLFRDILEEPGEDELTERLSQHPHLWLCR

T1 sequence (Q8NHX9 whole entry L11A/L12A): as the sequence (Q8NHX9 whole entry) above, with L11A, L12A counted along it

SMILES: CN(C)c1cc2c(Nc3ccc4c(cnn4Cc4ccccc4)c3)ncnc2cn1
I-TPC2 [1]: No activation

SMILES: C[N+](C)(C)CC#CCN1CCCC1=O
I-TPC2 [1]: No activation

I-TPC2 [1]: ~1000 pA
SMILES: CN(C)CCC=C1c2ccccc2CCc2ccccc21 [Amitriptyline hydrochloride]

SMILES: C#CCOC(=O)C1=CCCN(C)C1 [Arecaidine propargyl ester]
I-TPC2 [1]: No activation

SMILES: COC(=O)C1=CCCN(C)C1 [Arecoline]
I-TPC2 [1]: No activation

I-TPC2 [1]: No activation
SMILES: CC(C[N+](C)(C)C)OC(N)=O (stereo not drawn) [Bethanechol chloride]

I-TPC2 [1]: No activation
SMILES: C[N+](C)(C)CCOC(N)=O [Carbachol]

activation of whole-cell ITPC2-LL/AA (in words) [1]: no significant activation
activation of whole-cell ITPC2-LL/AA (in words) ([1]; listed as carbamazepine): not by carbamazepine
EC50 [1]: No activation
Whole endo-lysosomal TPC2 current activated by LyNa-VAs, Test 1 ([2]; 100uM, individual recording): -17
Whole endo-lysosomal TPC2 current activated by LyNa-VAs, Test 2 ([2]; 100uM, individual recording): 9.3
Whole endo-lysosomal TPC2 current activated by LyNa-VAs, Test 3 ([2]; 100uM, individual recording): 23.1
Whole endo-lysosomal TPC2 current activated by LyNa-VAs, mean ([2]; 100uM): 5.1
ITPC2 [2]: No activation
SMILES: NC(=O)N1c2ccccc2C=Cc2ccccc21 [Carbamazepine]
current density ([1]; 5 µM): 8.018 pA/pF and 9.073 pA/pF and 6.645 pA/pF
current density ([1]; 10 µM): 8.227 pA/pF and 9.227 pA/pF and 5.436 pA/pF
current density ([1]; 20 µM): 8.573 pA/pF and 9.164 pA/pF and 6.418 pA/pF
current density ([1]; 50 µM): 8.8 pA/pF and 8.755 pA/pF and 6.073 pA/pF
current density ([1]; 100 µM): 7.691 pA/pF and 8.973 pA/pF and 5.518 pA/pF
current density ([1]; 200 µM): 7.464 pA/pF and 9.855 pA/pF and 6.164 pA/pF
current density ([1]; 400 µM): 8.109 pA/pF and 8.755 pA/pF and 7.1 pA/pF

I-TPC2 [1]: >1500 pA
SMILES: CN(C)CCCN1c2ccccc2Sc2ccc(Cl)cc21 [Chlorpromazine hydrochloride]

I-TPC2 [1]: No activation
SMILES: CN(C)CCC[C@@]1(c2ccc(F)cc2)OCc2cc(C#N)ccc21 [Escitalopram]

I-TPC2 [1]: No activation
SMILES: N=C(N)NC(=O)Cc1c(Cl)cccc1Cl [Guanfacine hydrochloride]

SMILES: CN(C)C(=O)C(CCN1CCC(O)(c2ccc(Cl)cc2)CC1)(c1ccccc1)c1ccccc1 [Loperamide]
I-TPC2 [1]: No activation

current density ([1]; 400 µM): 103.264 pA/pF
EC50 ([1]; read-out: EC50): 112 ± 1 µM
ITPC2 [2]: 433 ± 94 pA
SMILES: CN(C)CCCN1c2ccccc2CCc2ccccc21 [LyNa-VA1.3, Imipramine]
current density ([1]; 10 µM): 4.664 pA/pF and 36.5364 pA/pF and 8.182 pA/pF
current density ([1]; 20 µM): 6.518 pA/pF and 56.7909 pA/pF and 7.655 pA/pF
current density ([1]; 50 µM): 14.1182 pA/pF and 126.618 pA/pF and 15.6182 pA/pF
current density ([1]; 100 µM): 42.3 pA/pF and 158.945 pA/pF and 32.4364 pA/pF
current density ([1]; 200 µM): 99.9 pA/pF and 167.955 pA/pF and 41.0364 pA/pF

Whole endo-lysosomal TPC2 current activated by LyNa-VAs, Test 1 ([2]; 100uM, individual recording): 621.3
Whole endo-lysosomal TPC2 current activated by LyNa-VAs, Test 2 ([2]; 100uM, individual recording): 343.9
Whole endo-lysosomal TPC2 current activated by LyNa-VAs, Test 3 ([2]; 100uM, individual recording): 334.8
Whole endo-lysosomal TPC2 current activated by LyNa-VAs, mean ([2]; 100uM): 433.3
SMILES: CN(C)CCCN1c2ccccc2CCc2ccccc21 [LyNa-VA1.3/imipramine]

activation of whole-cell ITPC2-LL/AA (in words) [1]: ITPC2 was evoked
current density ([1]; 5 µM): 12.4 pA/pF
current density ([1]; 400 µM): 179.973 pA/pF
EC50 ([1]; read-out: EC50): 102 ± 3 µM
ITPC2 [2]: 876 ± 196 pA
SMILES: CN(C)CCC=C1c2ccccc2CCc2ccccc21 [LyNa-VA1.4, Amitriptyline]
current density ([1]; 10 µM): 7.736 pA/pF and 9.045 pA/pF and 6.655 pA/pF and 9.464 pA/pF
current density ([1]; 20 µM): 11.0727 pA/pF and 11.9545 pA/pF and 11.2909 pA/pF and 11.6545 pA/pF
current density ([1]; 50 µM): 26.9364 pA/pF and 36.5091 pA/pF and 23.5818 pA/pF and 26.8545 pA/pF
current density ([1]; 100 µM): 95.0727 pA/pF and 115.527 pA/pF and 80.9273 pA/pF and 83.2 pA/pF
current density ([1]; 200 µM): 156.364 pA/pF and 155.436 pA/pF and 160.382 pA/pF and 158.109 pA/pF

SMILES: CNCCC=C1c2ccccc2CCc2ccccc21 [LyNa-VA1.5, Nortriptyline]
current density ([1]; 10 µM): 7.1 pA/pF and 35.8727 pA/pF and 7.336 pA/pF and 16.5636 pA/pF
current density ([1]; 20 µM): 6.773 pA/pF and 73.7727 pA/pF and 24.3182 pA/pF
current density ([1]; 50 µM): 14.0091 pA/pF and 121.209 pA/pF and 89.9 pA/pF
current density ([1]; 100 µM): 57.6545 pA/pF and 164.355 pA/pF and 160.345 pA/pF and 75.7909 pA/pF
current density ([1]; 200 µM): 154.282 pA/pF and 191.036 pA/pF and 204.236 pA/pF and 114.582 pA/pF
current density ([1]; 400 µM): 180.164 pA/pF
EC50 ([1]; read-out: EC50): 52 ± 10 µM
ITPC2 [2]: 1916 ± 361 pA

SMILES: CNCCC=C1c2ccccc2CCc2ccccc21 [LyNa-VA1.5/nortriptyline]
Whole endo-lysosomal TPC2 current activated by LyNa-VAs, Test 1 ([2]; 100uM, individual recording): 1814.6
Whole endo-lysosomal TPC2 current activated by LyNa-VAs, Test 2 ([2]; 100uM, individual recording): 1075.1
Whole endo-lysosomal TPC2 current activated by LyNa-VAs, Test 3 ([2]; 100uM, individual recording): 1937.9
Whole endo-lysosomal TPC2 current activated by LyNa-VAs, Test 4 ([2]; 100uM, individual recording, Test 4): 2836.3
Whole endo-lysosomal TPC2 current activated by LyNa-VAs, mean ([2]; 100uM): 1916.0

Whole endo-lysosomal TPC2 current activated by LyNa-VAs, Test 1 ([2]; 100uM, individual recording): 1013.4
Whole endo-lysosomal TPC2 current activated by LyNa-VAs, Test 2 ([2]; 100uM, individual recording): 2019.9
Whole endo-lysosomal TPC2 current activated by LyNa-VAs, Test 3 ([2]; 100uM, individual recording): 268.2
Whole endo-lysosomal TPC2 current activated by LyNa-VAs, mean ([2]; 100uM): 1100.5
SMILES: CN(C)CCCN1c2ccccc2Sc2ccc(Cl)cc21 [LyNa-VA2.1/chlorpromazine]

current density ([1]; 10 µM): 5.827 pA/pF and 3.645 pA/pF and 3 pA/pF
EC50 ([1]; read-out: EC50): 63 ± 2 µM
ITPC2 [2]: 984 ± 294 pA
SMILES: CN(C)CCCN1c2ccccc2Sc2ccc(C(F)(F)F)cc21 [LyNa-VA2.2, Triflupromazine]
current density ([1]; 20 µM): 9.373 pA/pF and 9.136 pA/pF and 3.482 pA/pF
current density ([1]; 50 µM): 33.1545 pA/pF and 26.4182 pA/pF and 44.2909 pA/pF
current density ([1]; 100 µM): 125.791 pA/pF and 49.7455 pA/pF and 115.618 pA/pF
current density ([1]; 200 µM): 155.109 pA/pF and 66.0091 pA/pF and 133.127 pA/pF

Whole endo-lysosomal TPC2 current activated by LyNa-VAs, Test 1 ([2]; 100uM, individual recording): 1572
Whole endo-lysosomal TPC2 current activated by LyNa-VAs, Test 2 ([2]; 100uM, individual recording): 698
Whole endo-lysosomal TPC2 current activated by LyNa-VAs, Test 3 ([2]; 100uM, individual recording): 681.2
Whole endo-lysosomal TPC2 current activated by LyNa-VAs, mean ([2]; 100uM): 983.7
SMILES: CN(C)CCCN1c2ccccc2Sc2ccc(C(F)(F)F)cc21 [LyNa-VA2.2/triflupromazine]

I-TPC2 [1]: No activation
SMILES: CC(=O)OC(C)C[N+](C)(C)C (stereo not drawn) [Methacholine chloride]

SMILES: C[C@@H]1O[C@H](C[N+](C)(C)C)C[C@H]1O [Muscarine]
I-TPC2 [1]: No activation

I-TPC2 [1]: No activation
SMILES: O=C(Nc1ccc([N+](=O)[O-])cc1Cl)c1cc(Cl)ccc1O [Niclosamide]

I-TPC2 [1]: No activation
SMILES: CN1Cc2c(N)cccc2C(c2ccccc2)C1 (stereo not drawn) [Nomifensine maleate]

I-TPC2 [1]: No activation
SMILES: CCCNCC(O)COc1ccccc1C(=O)CCc1ccccc1 (stereo not drawn) [Propafenone]

I-TPC2 [1]: ~1000 pA
SMILES: CNCCCC1c2ccccc2C=Cc2ccccc21 [Protriptyline hydrochloride]

I-TPC2 [1]: No activation
SMILES: CCN(CC)CCCC(C)Nc1c2ccc(Cl)cc2nc2ccc(OC)cc12 (stereo not drawn) [Quinacrine dihydrochloride dihydrate]

I-TPC2 [1]: >1500 pA
SMILES: CN(C)CCCN1c2ccccc2Sc2ccc(C(F)(F)F)cc21 [Triflupromazine hydrochloride]

I-TPC2 [1]: No activation
SMILES: CC(C)(C)c1cc(/C=C(\C#N)C(N)=S)cc(C(C)(C)C)c1O [Tyrphostin AG 879]

I-TPC2 [1]: No activation
SMILES: N#C/C(=C\c1ccc(O)c(O)c1)C(=O)NCc1ccccc1 [Tyrphostin B42]

SMILES: CC(=O)NBr [n-Bromoacetamide]
I-TPC2 [1]: No activation
